The text below walks through data of ChEMBL document CHEMBL1201862, “PubChem BioAssay data set” (2004).

The source made the active and inactive calls. Where only a bound is given, the exact number is not on record here.

A short description of assay [1]: inhibition of ARNT PAS-B/TACC3 complex formation – biochemical, AlphaScreen, cherry-picked samples, confirmation (AID 651703).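 Note: His-tagged ARNT PAS-B domain paired with GST-TACC3 E629A dimer coactivator fragment; potency of inhibitors that break up the complex and lower AlphaScreen signal.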 The assay is classed as functional, Homo sapiens. (In general: Alpha assays give light when donor and acceptor beads are brought close together.)
For assay [2], the target named is 72 kDa type IV collagenase (Homo sapiens, UniProt P08253). Put plainly: Dose Response validation of uHTS RPN11 inhibitor hits using a MMP-2 Fluorescence assay. The assay is classed as functional.
The target of assay [3] is T1, DNA repair protein RAD52 homolog (Homo sapiens, UniProt P43351).
T1 sequence (P43351 whole entry): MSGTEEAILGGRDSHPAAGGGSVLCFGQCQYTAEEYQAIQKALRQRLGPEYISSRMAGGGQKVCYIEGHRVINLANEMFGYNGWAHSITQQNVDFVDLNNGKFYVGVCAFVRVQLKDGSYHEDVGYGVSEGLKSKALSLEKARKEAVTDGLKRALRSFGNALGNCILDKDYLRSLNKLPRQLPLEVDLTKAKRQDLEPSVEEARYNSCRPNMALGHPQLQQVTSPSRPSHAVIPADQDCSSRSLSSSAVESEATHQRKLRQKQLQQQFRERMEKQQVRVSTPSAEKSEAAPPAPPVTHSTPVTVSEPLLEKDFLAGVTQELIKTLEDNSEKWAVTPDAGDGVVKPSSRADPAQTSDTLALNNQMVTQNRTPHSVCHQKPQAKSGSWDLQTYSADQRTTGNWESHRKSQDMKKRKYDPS
Format: functional, biochemical.

Assay [4] is described as follows: cytotoxicity toward MDA-MB-231 breast cancer cells – cell-based, CellTiter-Glo luminescence, cherry-pick, cytotoxicity control for RAD54 inhibitor project, dose response (AID 651692). The assay is classed as functional. (Cellular ATP, detected with luciferase, serves as a proxy for viable cell number.)
Assay [5] concerns the target Prothrombin (Bos taurus, UniProt P00735). Put plainly: thrombin protease inhibitors – biochemical, fluorescence polarization, uHTS hits, dose response (AID 602369). The assay is classed as functional. On the technique in general: In fluorescence polarisation assays a small probe gives low polarisation when free and higher when bound to something large.
The target in assay [6] is 26S proteasome non-ATPase regulatory subunit 14 (Homo sapiens, UniProt O00487). Nature of the assay: inhibition of proteasome subunit RPN11 – biochemical, fluorescence polarization, uHTS hits, confirmation (AID 602368). Format: functional.
Assay [7] has as its target T2, DNA repair and recombination protein RAD54-like (Homo sapiens, UniProt Q92698).
T2 sequence (Q92698 whole entry): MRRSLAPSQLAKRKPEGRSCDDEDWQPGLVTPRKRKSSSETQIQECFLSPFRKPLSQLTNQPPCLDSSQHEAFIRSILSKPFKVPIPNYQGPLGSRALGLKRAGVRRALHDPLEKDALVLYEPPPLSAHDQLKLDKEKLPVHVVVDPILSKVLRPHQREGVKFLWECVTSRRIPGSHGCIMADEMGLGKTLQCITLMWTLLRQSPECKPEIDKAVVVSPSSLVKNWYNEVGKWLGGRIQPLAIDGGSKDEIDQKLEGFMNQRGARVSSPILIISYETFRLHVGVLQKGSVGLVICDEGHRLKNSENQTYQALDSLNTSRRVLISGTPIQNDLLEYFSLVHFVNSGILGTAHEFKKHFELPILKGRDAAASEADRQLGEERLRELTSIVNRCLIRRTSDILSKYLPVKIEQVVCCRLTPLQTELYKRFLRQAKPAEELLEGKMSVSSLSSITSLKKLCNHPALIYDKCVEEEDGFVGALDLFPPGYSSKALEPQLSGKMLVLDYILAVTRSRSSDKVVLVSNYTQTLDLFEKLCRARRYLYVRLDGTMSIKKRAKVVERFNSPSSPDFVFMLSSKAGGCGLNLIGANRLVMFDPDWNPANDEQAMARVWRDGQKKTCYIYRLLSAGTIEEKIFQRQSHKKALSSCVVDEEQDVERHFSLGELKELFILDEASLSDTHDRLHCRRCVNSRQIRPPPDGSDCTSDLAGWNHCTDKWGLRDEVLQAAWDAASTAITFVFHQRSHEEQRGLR
Put plainly: RAD54 Holliday junction migration blockers – biochemical, fluorescence, cherry-picked samples, dose series, confirmation (AID 651657). Format: functional.

The target in assay [8] is T3, Interleukin-8 (Homo sapiens, UniProt P10145).
T3 sequence (P10145 whole entry): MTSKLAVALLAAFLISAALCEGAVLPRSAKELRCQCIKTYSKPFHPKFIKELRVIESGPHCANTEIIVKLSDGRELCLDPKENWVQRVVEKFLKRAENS
Put plainly: Dose Response confirmation of uHTS small molecule hits for cystic fibrosis induced NFkb Inhibitors in a TNFa-induced IL8 counterscreen. The conditions noted are these: read-out: IC50_Mean. Format: functional.

For assay [9], the target named is T3, Interleukin-8. Nature of the assay: Dose Response confirmation of uHTS small molecule hits for cystic fibrosis induced NFkb Inhibitors in a PAF-induced IL8 counterscreen. Format: functional. The conditions noted are these: read-out: IC50_Mean.
Assay [10] addresses T4, Tyrosine-protein phosphatase non-receptor type 22 (Homo sapiens, UniProt Q9Y2R2).
T4 sequence (Q9Y2R2 whole entry): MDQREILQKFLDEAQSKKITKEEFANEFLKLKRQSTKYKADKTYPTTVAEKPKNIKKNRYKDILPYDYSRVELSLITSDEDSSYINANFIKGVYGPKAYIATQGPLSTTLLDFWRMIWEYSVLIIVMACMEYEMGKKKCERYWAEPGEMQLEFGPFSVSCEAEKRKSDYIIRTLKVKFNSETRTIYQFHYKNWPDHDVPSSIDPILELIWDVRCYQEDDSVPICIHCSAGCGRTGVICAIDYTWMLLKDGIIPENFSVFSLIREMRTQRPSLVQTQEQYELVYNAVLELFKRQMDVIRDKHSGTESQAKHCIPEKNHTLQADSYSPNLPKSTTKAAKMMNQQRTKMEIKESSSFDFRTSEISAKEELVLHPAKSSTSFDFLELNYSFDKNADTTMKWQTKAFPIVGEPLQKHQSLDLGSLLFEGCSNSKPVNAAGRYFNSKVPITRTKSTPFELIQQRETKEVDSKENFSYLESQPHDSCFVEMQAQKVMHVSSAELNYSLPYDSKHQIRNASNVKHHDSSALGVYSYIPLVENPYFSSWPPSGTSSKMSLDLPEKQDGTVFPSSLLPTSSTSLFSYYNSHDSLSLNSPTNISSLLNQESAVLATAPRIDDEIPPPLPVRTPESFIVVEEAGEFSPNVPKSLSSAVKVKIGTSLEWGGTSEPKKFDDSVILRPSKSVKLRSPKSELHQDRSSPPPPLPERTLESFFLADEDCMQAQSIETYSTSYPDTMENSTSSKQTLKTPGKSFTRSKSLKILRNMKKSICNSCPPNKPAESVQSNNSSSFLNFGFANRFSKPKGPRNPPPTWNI
Nature of the assay: lymphoid phosphatase LYP inhibitors – biochemical, selectivity assay for STEP inhibitor project, dose response (AID 624241). The assay is classed as functional.

The target in assay [11] is Dual specificity protein phosphatase 3 (Homo sapiens, UniProt P51452). Put plainly: VHR phosphatase inhibition, dose response, selectivity assay for STEP inhibitor project, biochemical (AID 602374). Format: functional. The note with it: read-out: IC50_Mean.
For assay [12], the target named is T4, Tyrosine-protein phosphatase non-receptor type 22. Put plainly: PTPN22 enzyme inhibitors – biochemical, fluorescence, LYP catalytic domain, selectivity assay for LMPTP inhibitor project, dose response (AID 652006). The assay is classed as functional. The conditions noted are these: read-out: IC50_Mean.
In assay [13] the target is Tyrosine-protein phosphatase non-receptor type 5 (Homo sapiens, UniProt P54829). Put plainly: PTPN5 enzyme inhibition – biochemical, fluorescence intensity, uHTS hits, confirmation (AID 602372). Format: functional. The conditions noted are these: read-out: IC50_Mean.
Assay [14] concerns the target Tyrosine-protein phosphatase non-receptor type 11 (Homo sapiens, UniProt Q06124). Put plainly: PTPN11 enzyme inhibitors – biochemical, selectivity assay for STEP inhibitor project, dose response (AID 602367). The assay is classed as functional. The conditions noted are these: read-out: IC50_Mean.
In assay [15] the target is T5, Low molecular weight phosphotyrosine protein phosphatase (Homo sapiens, UniProt P24666).
T5 sequence (P24666 whole entry): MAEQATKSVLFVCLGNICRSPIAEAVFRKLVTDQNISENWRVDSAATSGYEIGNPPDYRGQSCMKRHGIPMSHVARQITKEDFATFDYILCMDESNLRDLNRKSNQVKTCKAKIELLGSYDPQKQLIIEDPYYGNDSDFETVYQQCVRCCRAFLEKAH
Format: functional. The note with it: read-out: IC50_Mean.

In assay [16] the target is T5, Low molecular weight phosphotyrosine protein phosphatase. Format: functional. The conditions noted are these: read-out: IC50_Mean. This is another data set of the same source.
Assay [17] concerns the target Platelet-activating factor acetylhydrolase (Mus musculus, UniProt Q60963). Nature of the assay: Late stage assay provider results from the probe development effort to identify inhibitors of pPAFAH: fluorescence-based dose-response biochemical gel-based competitive Activity-Based Protein Profiling (ABPP) assay for SAR compounds. The assay is classed as functional.
The target in assay [18] is Protein Wnt-3a (Mus musculus, UniProt P27467). Put plainly: SAR analysis of small molecule antagonists of Gli-SUFU in a Wnt3a luminescent reporter assay. Format: functional.
The nature of assay [19]: anti-trypanosomal activity in BESM host cells – imaging, CA-I/72 strain, bovine embryo skeletal muscle, dry powder, dose response (AID 651885). Format: functional, cell-based.

72 kDa type IV collagenase, sequence (P08253 whole entry): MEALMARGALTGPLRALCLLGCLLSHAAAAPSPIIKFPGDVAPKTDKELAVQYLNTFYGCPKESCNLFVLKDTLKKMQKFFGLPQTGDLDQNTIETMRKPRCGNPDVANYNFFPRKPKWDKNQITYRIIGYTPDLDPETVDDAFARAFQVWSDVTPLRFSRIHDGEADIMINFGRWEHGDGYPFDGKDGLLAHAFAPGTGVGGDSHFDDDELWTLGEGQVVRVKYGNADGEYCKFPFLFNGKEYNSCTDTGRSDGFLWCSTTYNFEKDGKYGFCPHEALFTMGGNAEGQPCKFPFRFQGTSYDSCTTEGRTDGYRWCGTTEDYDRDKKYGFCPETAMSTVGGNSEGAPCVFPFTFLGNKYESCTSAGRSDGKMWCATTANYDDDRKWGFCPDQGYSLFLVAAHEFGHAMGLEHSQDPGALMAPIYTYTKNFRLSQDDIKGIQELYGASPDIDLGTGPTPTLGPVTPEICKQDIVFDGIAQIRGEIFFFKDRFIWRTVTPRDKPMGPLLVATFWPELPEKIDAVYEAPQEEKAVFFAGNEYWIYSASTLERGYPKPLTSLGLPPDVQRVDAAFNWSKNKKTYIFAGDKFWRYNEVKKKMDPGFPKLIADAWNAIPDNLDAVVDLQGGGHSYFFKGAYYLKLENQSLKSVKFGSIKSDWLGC
Tyrosine-protein phosphatase non-receptor type 5, sequence (P54829 whole entry): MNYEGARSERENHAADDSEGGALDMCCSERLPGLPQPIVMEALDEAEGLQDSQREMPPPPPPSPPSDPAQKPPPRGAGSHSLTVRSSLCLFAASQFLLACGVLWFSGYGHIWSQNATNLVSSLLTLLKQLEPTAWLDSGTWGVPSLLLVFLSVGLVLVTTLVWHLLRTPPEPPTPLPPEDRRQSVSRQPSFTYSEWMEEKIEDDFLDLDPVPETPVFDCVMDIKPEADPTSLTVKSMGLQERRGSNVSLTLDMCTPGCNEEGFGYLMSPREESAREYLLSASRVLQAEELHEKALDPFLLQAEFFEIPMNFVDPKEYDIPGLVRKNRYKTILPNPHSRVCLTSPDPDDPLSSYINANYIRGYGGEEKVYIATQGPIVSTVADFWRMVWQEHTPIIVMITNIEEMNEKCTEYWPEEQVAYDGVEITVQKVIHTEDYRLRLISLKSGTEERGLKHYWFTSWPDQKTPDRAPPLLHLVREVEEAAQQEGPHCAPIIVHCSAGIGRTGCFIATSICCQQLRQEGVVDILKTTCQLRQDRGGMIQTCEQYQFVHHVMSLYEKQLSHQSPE
26S proteasome non-ATPase regulatory subunit 14, sequence (O00487 whole entry): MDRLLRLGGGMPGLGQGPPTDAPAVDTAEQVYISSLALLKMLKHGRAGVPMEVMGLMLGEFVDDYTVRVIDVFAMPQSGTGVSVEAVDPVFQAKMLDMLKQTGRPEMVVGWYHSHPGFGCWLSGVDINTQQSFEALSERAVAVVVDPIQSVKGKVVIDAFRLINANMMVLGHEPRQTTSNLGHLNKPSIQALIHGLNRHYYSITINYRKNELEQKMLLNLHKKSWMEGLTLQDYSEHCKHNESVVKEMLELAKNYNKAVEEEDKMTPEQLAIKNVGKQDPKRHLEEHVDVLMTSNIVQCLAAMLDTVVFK
Tyrosine-protein phosphatase non-receptor type 11, sequence (Q06124 whole entry): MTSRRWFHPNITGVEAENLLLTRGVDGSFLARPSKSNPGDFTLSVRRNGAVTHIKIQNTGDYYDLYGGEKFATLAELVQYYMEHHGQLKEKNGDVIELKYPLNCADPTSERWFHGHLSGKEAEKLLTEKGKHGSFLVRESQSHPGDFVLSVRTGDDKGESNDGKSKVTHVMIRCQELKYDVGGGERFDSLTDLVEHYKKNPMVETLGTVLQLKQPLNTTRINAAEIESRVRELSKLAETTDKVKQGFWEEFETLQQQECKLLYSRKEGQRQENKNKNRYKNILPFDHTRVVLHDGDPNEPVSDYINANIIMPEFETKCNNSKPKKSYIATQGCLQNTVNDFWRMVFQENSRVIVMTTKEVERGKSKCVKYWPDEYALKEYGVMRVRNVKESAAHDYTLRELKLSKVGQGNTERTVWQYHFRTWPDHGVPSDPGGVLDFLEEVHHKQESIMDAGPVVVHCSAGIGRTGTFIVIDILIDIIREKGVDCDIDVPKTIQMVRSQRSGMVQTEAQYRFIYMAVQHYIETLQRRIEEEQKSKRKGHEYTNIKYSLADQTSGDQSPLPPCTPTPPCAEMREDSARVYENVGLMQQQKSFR
Platelet-activating factor acetylhydrolase, sequence (Q60963 whole entry): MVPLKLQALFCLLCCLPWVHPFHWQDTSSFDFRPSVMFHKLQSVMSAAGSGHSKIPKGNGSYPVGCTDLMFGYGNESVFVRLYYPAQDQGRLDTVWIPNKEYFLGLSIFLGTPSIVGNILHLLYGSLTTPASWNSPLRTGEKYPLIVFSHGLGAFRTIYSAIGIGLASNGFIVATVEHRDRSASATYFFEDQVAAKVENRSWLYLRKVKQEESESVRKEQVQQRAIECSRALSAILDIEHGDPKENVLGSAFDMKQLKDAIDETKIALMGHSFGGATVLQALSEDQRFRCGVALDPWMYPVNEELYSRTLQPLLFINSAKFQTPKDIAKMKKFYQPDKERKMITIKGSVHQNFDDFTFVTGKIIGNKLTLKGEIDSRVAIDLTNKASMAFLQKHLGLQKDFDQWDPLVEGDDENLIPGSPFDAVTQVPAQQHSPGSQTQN
Protein Wnt-3a, sequence (P27467 whole entry): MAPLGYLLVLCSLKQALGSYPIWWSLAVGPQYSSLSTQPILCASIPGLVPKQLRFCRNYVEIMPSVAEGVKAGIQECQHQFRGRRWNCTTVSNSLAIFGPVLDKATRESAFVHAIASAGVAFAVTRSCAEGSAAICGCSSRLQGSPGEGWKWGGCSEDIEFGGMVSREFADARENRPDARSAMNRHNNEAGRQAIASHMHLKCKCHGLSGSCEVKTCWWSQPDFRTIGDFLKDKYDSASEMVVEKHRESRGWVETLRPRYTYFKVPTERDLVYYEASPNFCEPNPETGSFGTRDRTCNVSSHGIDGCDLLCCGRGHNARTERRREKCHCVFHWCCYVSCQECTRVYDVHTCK
Dual specificity protein phosphatase 3, sequence (P51452 whole entry, the tested form may be a part): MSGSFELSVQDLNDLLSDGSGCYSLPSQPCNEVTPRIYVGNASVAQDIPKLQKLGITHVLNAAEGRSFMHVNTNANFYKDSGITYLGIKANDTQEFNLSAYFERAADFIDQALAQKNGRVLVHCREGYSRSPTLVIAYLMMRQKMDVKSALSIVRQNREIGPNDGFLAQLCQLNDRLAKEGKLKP

As to `O=C(COC(=O)c1ccc([N+](=O)[O-])o1)Nc1ccc(F)cc1`, the AC50 in assay [1] was 109 µM (active).

As for `COC(=O)c1c(NC(=O)c2ccc(S(=O)(=O)N3CC(C)OC(C)C3)cc2)sc2c1CCN(C)C2` (centres undefined), the IC50 was > 100 µM (inactive) in assay [2], 37.4 µM (active) in [5] and 29.5 µM (active) in assay [6]. Besides, the AC50 in assay [3] was 11.8 µM (active); in [4] it was 24.6 µM (active); in assay [7], 55.4 µM (active).

`Nc1nccc(SCc2ccc(Cl)cc2Cl)n1`: the IC50 in assay [8] is > 79 µM (inactive); in assay [9], 6.67 µM (active).

As for `O=C(N/N=C/c1ccc(Br)s1)c1cccc([N+](=O)[O-])c1`, the IC50 in [10] was 64.9 µM (inactive); in assay [11] it was 3.4 µM (active); in assay [12] it was 18.2 µM (active); in [13], 7.95 µM (active); in [14], 2.15 µM (active); in assay [15], 9.2 µM (active). Moreover, the IC50 in [16] is 9.56 µM (active).

Take `Cc1cc(N2CCN(C(=O)Oc3ccc(-c4ccccc4)cc3)CC2)c2ccccc2n1`: in assay [17], the IC50 was 0.091 µM (active).

On to `CC1CCN(c2cc(NC(=O)c3ccccc3)ncn2)CC1`, for which, in assay [18], the IC50 is > 21.8 µM (inactive).

For `CC(C)N1C[C@H](C)[C@@H](CN(C)C(=O)OC(C)(C)C)Oc2c(NC(=O)c3ccccn3)cccc2C1=O`, the IC50 in [19] was 10.3 µM (inconclusive).

As a reminder, the AC50 is the concentration giving half of the maximal activity seen.
